Patent publication US8691808B2, “Antiviral compounds and their methods of use” (Influmedix, Inc., priority 2011, dated 2014)
Structures can show the parent of a compound that is named as a salt.

Each compound was assayed against T1, A/M2 protein (IonGate S31) (Influenza A virus, UniProt P0DOF5) (assay: Cell-free electrophysiology of M2 proton channels on solid supported membranes (SSM, IonGate SURFE2R)). Details: 25 μM compound, activation by pH jump 7.0 to 6.0, % inhibition=100×(1−I/Io), hydrochloride, 25 µM.
T1 construct: expressed in transfected cells; host or cells: CHO cell membranes
T1 sequence (P0DOF5 whole entry): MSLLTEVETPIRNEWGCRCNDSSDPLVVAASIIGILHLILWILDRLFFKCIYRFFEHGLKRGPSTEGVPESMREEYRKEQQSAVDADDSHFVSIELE
Format: biochemical
In the case of `NC12CC3CC(CC(C(F)F)C(C3)C1)C2` (stereo not drawn) [Example 10, exo-4-(difluoromethyl)tricyclo[4.3.1.1^3,8]undecan-1-amine hydrochloride], the “IonGate S31 (% Inhibition Range at 25 μM)” value is reported as “B (11-50% (B))”. `NC12CC3CC(CC(C(F)F)C(C3)C1)C2` (stereo not drawn) [Example 11, endo-4-(difluoromethyl)tricyclo[4.3.1.1^3,8]undecan-1-amine hydrochloride] was tested, and the “IonGate S31 (% Inhibition Range at 25 μM)” value was “A (51-95% (A))”.

Same assay, conditions: 25 μM compound, activation by pH jump 7.0 to 6.0, % inhibition=100×(1−I/Io), read-out: IonGate S31 (% Inhibition Range at 25 μM)
With `NC12CC3CC(CC(C1)C(O)C3)C2` (stereo not drawn) [Example 1, exo-1-aminotricyclo[4.3.1.1^3,8]undecan-4-ol hydrochloride] the inhibition at 25 µM was 11 to 50%. `NC12CC3CC(CC(C1)C(F)C3)C2` (stereo not drawn) [Example 3, endo-4-fluorotricyclo[4.3.1.1^3,8]undecan-1-amine hydrochloride] gave an inhibition at 25 µM of 51 to 95%. `NC12CC3CC(CC(C1)C(I)C3)C2` (centres unmarked) [Example 5, 4-iodotricyclo[4.3.1.1^3,8]undecan-1-amine hydrochloride] gave an inhibition at 25 µM of 11 to 50%. For `N#CC1CC2CC3CC1CC(N)(C2)C3` (stereo not drawn) [Example 8, exo-1-aminotricyclo[4.3.1.1^3,8]undecane-4-carbonitrile hydrochloride], the inhibition at 25 µM was 51 to 95%. Work on `NC12CC3CC(=NO)C(CC(C3)C1)C2` (centres unmarked) [Example 12, 1-aminotricyclo[4.3.1.1^3,8]undecan-4-one oxime hydrochloride] yielded an inhibition at 25 µM of 1 to 10%. Compound `NC12CC3CC(C1)OC(=O)C(C3)C2` (centres unmarked) [Example 13, 1-amino-4-oxatricyclo[4.3.1.1^3,8]undecan-5-one hydrochloride] has an inhibition at 25 µM of 1 to 10%. `NC12CC3CC(C1)NC(=O)C(C3)C2` (centres unmarked) [Example 14, 1-amino-4-azatricyclo[4.3.1.1^3,8]undecan-5-one hydrochloride] showed an inhibition at 25 µM of 1 to 10%. For `NC12CC3CNC(CC(C3)C1)C2` (centres unmarked) [Example 15, 4-azatricyclo[4.3.1.1^3,8]undecan-1-amine dihydrochloride], the inhibition at 25 µM was 11 to 50%. Compound `NC12CC3COC(CC(C3)C1)C2` (centres unmarked) [Example 16, 4-oxatricyclo[4.3.1.1^3,8]undecan-1-amine hydrochloride] has an inhibition at 25 µM of 11 to 50%.
